Measured values reported in patent publication US20240041042A1, “1-(PYRIDYL)-5-AZINYLPYRAZOLE DERIVATIVES, AND THEIR USE FOR CONTROL OF UNDESIRED PLANT GROWTH” (Bayer Aktiengesellschaft, priority 2020, published 2024).
Where two headings read alike, the source gives them in different places.

Legend:
Assay type in all cases: in vivo
[1] = tested on: Alopecurus myosuroides (ALOMY); assay: Pre-emergence herbicidal action against ALOMY; conditions: scored visually after about 3 weeks, 100% = plants have died
Source text: (§1) Seeds of monocotyledonous and dicotyledonous weed plants and crop plants are placed in plastic or organic planting pots and covered with soil. The compounds of the invention, formulated in the form of wettable powders (WP) or as emulsion concentrates (EC), are then applied to the surface of the covering soil as aqueous suspension or emulsion with addition of 0.5% additive at a water application rate equivalent to 600 l/ha. After the treatment, the pots are placed in a greenhouse and kept under good growth conditions for the trial plants. After about 3 weeks, the effect of the preparations is scored visually in comparison with untreated controls as percentages. For example, 100% activity=the plants have died, 0% activity=like control plants.
(§2) Tables A1 to A13 below show the effects of selected compounds of the general formula (I) on various harmful plants and at an application rate corresponding to 320 g/ha or lower, which were obtained by the experimental procedure mentioned above. The appendices “a”, “b” and “c” give differentiation by dosage used with otherwise the same harmful plants tested.

[2] = tested on: Amaranthus retroflexus (AMARE); assay: Pre-emergence herbicidal action against AMARE; conditions: visual scoring after about 3 weeks vs untreated controls
Source text: as §1, §2

Avena fatua (AVEFA) [3] = assay: Pre-emergence herbicidal action against AVEFA; conditions: visual scoring after about 3 weeks vs untreated controls
Source text: as §1, §2

[4] = tested on: Echinochloa crus-galli (ECHCG); assay: Pre-emergence herbicidal action against ECHCG
Source text: as §1, §2

Lolium rigidum (LOLRI) [5] = assay: Pre-emergence herbicidal action against LOLRI
Source text: as §1, §2

[6] = tested on: Pharbitis purpurea (PHBPU); assay: Pre-emergence herbicidal action against PHBPU; conditions: dosage 320 g/ha
Source text: as §1, §2

[7] = tested on: Polygonum convolvulus (POLCO); assay: Pre-emergence herbicidal action against POLCO
Source text: as §1, §2

Setaria viridis (SETVI) [8] = assay: Pre-emergence herbicidal action against SETVI
Source text: as §1, §2

[9] = tested on: Verconica persica (VERPE); assay: Pre-emergence herbicidal action against VERPE
Source text: as §1, §2

Viola tricolor (VIOTR) [10] = assay: Pre-emergence herbicidal action against VIOTR
Source text: as §1, §2

[11] = tested on: Alopecurus myosuroides (ALOMY); assay: Post-emergence herbicidal action against ALOMY; conditions: visual rating about 3 weeks after treatment vs untreated controls (100% = plants have died, 0% = like control plants)
Method: (§3) Seeds of monocotyledonous and dicotyledonous weeds and crop plants are placed in sandy loam in plastic or organic planting pots, covered with soil and cultivated in a greenhouse under controlled growth conditions. 2 to 3 weeks after sowing, the test plants are treated at the one-leaf stage. The compounds of the invention, formulated in the form of wettable powders (WP) or as emulsion concentrates (EC), are then sprayed onto the green parts of the plants as aqueous suspension or emulsion with addition of 0.5% additive at a water application rate of 600 l/ha (converted). After the test plants have been kept in the greenhouse under optimum growth conditions for about 3 weeks, the activity of the preparations is rated visually in comparison to untreated controls. For example, 100% activity=the plants have died, 0% activity=like control plants.
(§4) Tables B1 to B13 below show the effects of selected compounds of the general formula (I) according to Table 1 on various harmful plants and at an application rate corresponding to 320 g/ha or lower, which were obtained by the experimental procedure mentioned above. The appendices “a”, “b” and “c” give differentiation by dosage used with otherwise the same harmful plants tested.

[12] = tested on: Amaranthus retroflexus (AMARE); assay: Post-emergence herbicidal action against AMARE; conditions: 80 g/ha, visual rating about 3 weeks after treatment vs untreated controls (100% = plants have died, 0% = like control plants)
Method: as §3, §4

Avena fatua (AVEFA) [13] = assay: Post-emergence herbicidal action against AVEFA; conditions: visual rating about 3 weeks after treatment
Method: as §3, §4

[14] = tested on: Echinochloa crus-galli (ECHCG); assay: Post-emergence herbicidal action against ECHCG
Method: as §3, §4

Lolium rigidum (LOLRI) [15] = assay: Post-emergence herbicidal action against LOLRI
Method: as §3, §4

[16] = tested on: Pharbitis purpurea (PHBPU); assay: Post-emergence herbicidal action against PHBPU
Method: as §3, §4

Setaria viridis (SETVI) [17] = assay: Post-emergence herbicidal action against SETVI
Method: as §3, §4

[18] = tested on: Verconica persica (VERPE); assay: Post-emergence herbicidal action against VERPE
Method: as §3, §4

Zea mays (ZEAMX) = conditions: for Post-emergence action against ZEAMX in % (crop plant compatibility): 20 g/ha, effect in comparison to untreated controls; for Post-emergence action against ZEAMX in %: crop plant compatibility, 80 g/ha, effect vs untreated controls
Method: as §3
(§5) The observed effects on selected crop plants are reported here in comparison to the untreated controls (values in %). The appendices “a”, “b” and “c” give differentiation by dosage used with otherwise the same crop plants tested.

[19] = tested on: Matricaria inodora (MATIN); assay: Pre-emergence herbicidal action against MATIN
Source text: as §1, §2

Oryza sativa (ORYSA) = conditions: crop plant compatibility
Method: as §3, §5

[20] = tested on: Abutilon theophrasti (ABUTH); assay: Post-emergence herbicidal action against ABUTH; conditions: 320 g/ha, visual rating about 3 weeks after treatment vs untreated controls (100% = plants have died, 0% = like control plants)
Method: as §3, §4

[21] = tested on: Polygonum convolvulus (POLCO); assay: Post-emergence herbicidal action against POLCO; conditions: dosage 320 g/ha
Method: as §3, §4

Viola tricolor (VIOTR) [22] = assay: Post-emergence herbicidal action against VIOTR
Method: as §3, §4

[23] = 20 g/ha, effect vs untreated controls
[24] = 80 g/ha, effect in comparison to untreated controls

| SMILES | Pre-emergence action against ALOMY ([1]; 80 g/ha) [%] | Pre-emergence action against ALOMY ([1]; 320 g/ha) [%] | Pre-emergence action against AMARE in % ([2]; 80 g/ha) [%] | Pre-emergence action against AMARE in % ([2]; 320 g/ha) [%] | Pre-emergence action against AVEFA in % (Avena fatua (AVEFA) [3]; 320 g/ha) [%] | Pre-emergence action against ECHCG in % ([4]; dosage 320 g/ha) [%] | Pre-emergence action against LOLRI in % (Lolium rigidum (LOLRI) [5]; dosage 80 g/ha) [%] | Pre-emergence action against LOLRI in % (Lolium rigidum (LOLRI) [5]; dosage 320 g/ha) [%] | Pre-emergence action against PHBPU in % [6] [%] | Pre-emergence action against POLCO in % ([7]; dosage 320 g/ha) [%] | Pre-emergence action against SETVI in % (Setaria viridis (SETVI) [8]; dosage 80 g/ha) [%] | Pre-emergence action against SETVI in % (Setaria viridis (SETVI) [8]; dosage 320 g/ha) [%] | Pre-emergence action against VERPE in % ([9]; dosage 320 g/ha) [%] | Pre-emergence action against VIOTR in % (Viola tricolor (VIOTR) [10]; 320 g/ha, Viola tricolor) [%] | Pre-emergence action against VIOTR in % (Viola tricolor (VIOTR) [10]; dosage 80 g/ha) [%] | Post-emergence action against ALOMY in % ([11]; 80 g/ha) [%] | Post-emergence action against AVEFA in % (Avena fatua (AVEFA) [13]; 80 g/ha) [%] | Post-emergence action against ECHCG in % ([14]; dosage 80 g/ha) [%] | Post-emergence action against ZEAMX in % (crop plant compatibility) (Zea mays (ZEAMX)) [%] | Post-emergence action against ZEAMX in % (Zea mays (ZEAMX)) [%] | also measured |
| --- | --- | --- | --- | --- | --- | --- | --- | --- | --- | --- | --- | --- | --- | --- | --- | --- | --- | --- | --- | --- | --- |
| CCOC(=O)COc1nn(-c2ncccc2F)c(-c2ccc(F)nc2)c1C1CC1 [Example I-40] | 100 | 100 | 80 | 100 | 100 | 100 | 90 | 100 | 80 | 80 | 100 | 100 | 100 | 100 | 90 | 100 | 80 | 90 | 0 | 20 | Pre-emergence action against ECHCG in % ([4]; dosage 80 g/ha): 90%; Post-emergence action against AMARE in % [12]: 80%; Post-emergence action against LOLRI in % (Lolium rigidum (LOLRI) [15]; dosage 80 g/ha): 90%; Post-emergence action against PHBPU in % ([16]; dosage 80 g/ha): 80%; Post-emergence action against SETVI in % (Setaria viridis (SETVI) [17]; dosage 80 g/ha): 80%; Post-emergence action against VERPE in % ([18]; dosage 80 g/ha): 80% |
| O=C(O)COc1nn(-c2ncccc2F)c(-c2ccc(F)nc2)c1C1CC1 [Example I-43] | 100 | 100 | 80 | 90 | 100 | 100 | 90 | 100 | 80 | 80 | 100 | 100 | 90 | 100 | 100 | 90 | 90 | 90 | 10 | 10 | Pre-emergence action against MATIN in % ([19]; dosage 320 g/ha): 80%; Post-emergence action against AMARE in % [12]: 80%; Post-emergence action against SETVI in % (Setaria viridis (SETVI) [17]; dosage 80 g/ha): 90%; Post-emergence action against ORYSA in % (Oryza sativa (ORYSA); [23]): 10% |
| C[C@@H](Oc1nn(-c2nc(F)ccc2F)c(-c2ccc(F)nc2)c1Cl)C(=O)O [Example I-311] | 80 | 90 | 80 | 90 | 90 | 100 | 90 | 90 |  | 90 |  | 100 | 90 | 100 | 90 | 80 |  | 80 |  | 10 | Pre-emergence action against MATIN in % ([19]; dosage 80 g/ha): 80%; Pre-emergence action against MATIN in % ([19]; dosage 320 g/ha): 90%; Pre-emergence action against POLCO in % ([7]; dosage 80 g/ha): 80%; Pre-emergence action against VERPE in % ([9]; dosage 80 g/ha): 80%; Post-emergence action against ABUTH in % [20]: 80%; Post-emergence action against ALOMY in % ([11]; 320 g/ha): 90%; Post-emergence action against AVEFA in % (Avena fatua (AVEFA) [13]; 320 g/ha): 80%; Post-emergence action against ECHCG in % ([14]; dosage 320 g/ha): 90%; Post-emergence action against LOLRI in % (Lolium rigidum (LOLRI) [15]; dosage 320 g/ha): 80%; Post-emergence action against PHBPU in % ([16]; dosage 320 g/ha): 90%; Post-emergence action against POLCO in % [21]: 80%; Post-emergence action against SETVI in % (Setaria viridis (SETVI) [17]; dosage 320 g/ha): 80%; Post-emergence action against VERPE in % ([18]; 320 g/ha, VERPE): 90%; Post-emergence action against VIOTR in % (Viola tricolor (VIOTR) [22]; 80 g/ha): 80%; Post-emergence action against VIOTR in % (Viola tricolor (VIOTR) [22]; 320 g/ha): 80%; Post-emergence action against ORYSA in % (Oryza sativa (ORYSA); [24]): 20% |
| CCOC(=O)[C@@H](C)Oc1nn(-c2ncccc2F)c(-c2ccc(F)nc2)c1Cl [Example I-32] | 90 | 100 | 90 | 100 | 100 | 100 | 90 | 100 | 80 | 90 | 100 | 100 | 100 | 100 | 100 | 90 | 90 | 80 | 20 |  | Pre-emergence action against AVEFA in % (Avena fatua (AVEFA) [3]; 80 g/ha): 90%; Pre-emergence action against MATIN in % ([19]; dosage 320 g/ha): 90%; Pre-emergence action against POLCO in % ([7]; dosage 80 g/ha): 90%; Pre-emergence action against VERPE in % ([9]; dosage 80 g/ha): 80%; Post-emergence action against LOLRI in % (Lolium rigidum (LOLRI) [15]; dosage 80 g/ha): 90%; Post-emergence action against PHBPU in % ([16]; dosage 80 g/ha): 80%; Post-emergence action against VERPE in % ([18]; dosage 80 g/ha): 80%; Post-emergence action against VIOTR in % (Viola tricolor (VIOTR) [22]; 80 g/ha): 80%; Post-emergence action against ORYSA in % (Oryza sativa (ORYSA); [23]): 0%; Post-emergence action against ORYSA in % (Oryza sativa (ORYSA); [24]): 0% |
